The values that follow come from patent US10759779B2, “Crystalline form of orexin receptor antagonist, processes for preparation thereof and use thereof” (priority 2017, dated 2020).

Common to all, as to assay type: physicochemical
Data set [1] in a line: Flowability (bulk/tapped density, compressibility index). The settings on record: for Compressibility index: c=(ρf−ρ0)/ρf*100%; for Flowability: class by compressibility index. On the procedure:
Compressibility, also known as compressibility index is usually used to evaluate the flowability of powder and granular intermediates during the formulation process. A certain amount of powder was added into a measuring cylinder and bulk volume was recorded. Then the measuring cylinder was tapped to make the powder in the tightest state and the tapped volume was recorded. The bulk density (ρ0), tapped density (ρf) were calculated, and compressibility index was calculated according to c=(ρf−ρ0)/ρf. Compressibility index or Carr Index is an important indicator for evaluating the flowability of powder.
Compressibility index test method is as follows: Compressibility index was calculated according to bulk density ρ0 and tapped density ρf of Form CS2 and the amorphous solid of the prior art with c=(ρf−ρ0)/ρf*100%.

The nature of data set [2]: Hygroscopicity by dynamic vapor sorption (DVS). The protocol:
Thermo gravimetric analysis (TGA) data in the present disclosure were acquired by a TA Q500. The parameters of the TGA method of the present disclosure were as follows: • Heating rate: 10° C./min • Purge gas: nitrogen • Dynamic Vapor Sorption (DVS) is measured via a SMS (Surface Measurement Systems Ltd.) intrinsic DVS instrument. Typical Parameters for DVS test are as follows: • Temperature: 25° C. • Gas and flow rate: N2, 200 mL/min • dm/dt: 0.002%/min • RH range: 0% RH to 95% RH
Dynamic vapor sorption (DVS) was applied to measure hygroscopicity of Form CS2 with about 10 mg of samples. The weight gains at each relative humidity were recorded in a cycle of 0-95%-0 RH. The XRPD pattern overlay of Form CS2 before and after DVS test is presented in FIG. 14 (top: XRPD pattern before DVS; bottom: XRPD pattern after DVS). […] The weight gain under 80% RH is 0.21%.

The nature of data set [3]: Adhesiveness (material sticking to the punch). The following applies: 30 mg, φ8 mm round tooling, 10 KN, 30s. On the procedure:
30 mg of Form CS2 was weighed and added into the dies of φ8 mm round tooling, tableted at 10 KN and held for 30s. The amount of material sticking to the punch was weighed. The compression was repeated twice and the cumulative amount, maximum amount and average amount of material sticking to the punch during the compression process were recorded.

Data set [4] in a line: Compressibility (tablet hardness, tensile strength). On the procedure: 80 mg of Form CS2 was weighted and added into the dies of φ6 mm round tooling, compressed at 10 KN. The round tablet was stored in a desiccator for 24 hours until complete elastic recovery. Hardness (H) was tested with a tablet hardness tester. Diameter (D) and thickness (L) were tested with caliper. Tensile strength of the powder was calculated with the following formula: T=2H/πDL. Under a certain force, the greater the tensile strength, the better the compressibility.

Data set [5] in a line: Grinding stability of Form CS2. The following applies: ground manually for 5 minutes in a mortar, XRPD. On the procedure: Form CS2 was ground manually for 5 minutes in a mortar. The XRPD pattern of the solids before and after grinding are presented in FIG. 12 (top: XRPD pattern before grinding; bottom: XRPD pattern after grinding). […] Form CS2 has good grinding stability.

Setting [6] is: 80 mg tablet, φ6 mm, 10 KN, after 24 hours.

Regarding `Cc1ncc(OC[C@@]2(c3cccc(F)c3)C[C@H]2C(=O)Nc2ccc(F)cn2)c(C)n1` [Amorphous solid, (1R,2S)-2-{[(2,4-dimethylpyrimidin-5-yl)oxy]methyl}-2-(3-fluorophenyl)-N-(5-fluoropyridin-2-yl)cyclopropanecarboxamide, reference compound], in data set [1], the “Bulk density (ρ0)” value amounted to 0.196 g/mL, the “Tapped density (ρf)” value was found to be 0.274 g/mL, the Compressibility index is reported as 28% and the Flowability result is reported as “Poor”.

With `Cc1ncc(OC[C@@]2(c3cccc(F)c3)C[C@H]2C(=O)Nc2ccc(F)cn2)c(C)n1` [Form CS2, (1R,2S)-2-{[(2,4-dimethylpyrimidin-5-yl)oxy]methyl}-2-(3-fluorophenyl)-N-(5-fluoropyridin-2-yl)cyclopropanecarboxamide], the “Weight gain under 80% Relative Humidity” value in data set [2] (DVS, 25° C.) came to 0.21%. In addition, in data set [2] (cycle of 0-95%-0 RH, XRPD), the “Crystalline form after DVS” value is recorded as “does not change after DVS”. For the same compound, in data set [3], the “Average amount of material sticking to the punch” value is reported as 0.22 mg, the “Cumulative amount of material sticking to the punch” value is listed as 0.44 mg and the “Maximum amount of material sticking to the punch” value turned out to be 0.74 mg. In data set [4] (setting [6]), the Diameter is recorded as 6.06 mm, the Hardness turned out to be 8.4 N and the Thickness amounted to 2.40 mm. In data set [4] (T=2H/πDL), this compound came in with a Tensile strength of 0.37 MPa. Further, in data set [1], the “Bulk density (ρ0)” value was 0.263 g/mL, the “Tapped density (ρf)” value was found to be 0.351 g/mL, the Compressibility index worked out at 25% and the Flowability result is “Passable (21-25)”. Also, in data set [5], the “Crystalline form after grinding” value is “does not change after grinding”.
